Source: patent US8524978B2, “Composition for production of plant body having improved sugar content, and use thereof” (Japan Science and Technology Agency, priority 2007, dated 2013)
Entries after “also recorded” stand apart in the source; their conditions may differ.

What was measured:
Format in all cases: in vivo
[1] = system: Citrus unshiu; assay: Sugar content determination of Citrus unshiu fruit with refractometer (Example 9); conditions: leaf surface coated with 0.5 mM one week before harvest; vs no GSSG; ANOVA 5%
Protocol: In the present example, Citrus unshiu was cultivated. Specifically, one week before an expected date of harvesting Citrus unshiu fruit, a surface of a leaf on a branch having the fruit to be harvested was coated with 0.5 mM GSSG. The fruit was harvested on the expected date.
Next, the fruit harvested was subjected to a sensory test of sugar content. As a result, it was determined that the fruit applied with GSSG increased in sugar content and decreased in acidity. Further, it was determined that the fruit applied with GSSG increased in weight. Furthermore, the fruit obtained was subjected to sugar content determination using “Pocket” Refractometer APAL-1 (ATAGO CO., LTD.). For comparison, fruit applied with no GSSG was also subjected to the sugar content determination. […] In FIG. 6, the vertical scale indicates sugar content (Brix, unit: %).

[2] = system: Vitis labrusca (Delaware); assay: Cultivation of Vitis labrusca with GSSG or GSH, sensory test (Example 5)
Protocol: In the present invention, Vitis labrusca was cultivated. Specifically, immediately after flowering of a Vitis labrusca (Delaware) plant, a mixed solution of 1 mM gibberellin (GA3) and 1 mM of an agent was applied to anthotaxy of the plant. The agent was GSSG or GSH. Then, the plant was coated with the agent and thereafter produced fruit was harvested. For comparison, a Vitis labrusca plant was cultivated in the same way, except that GA3, but not GSSG or GSH, was applied, and fruit thereof was harvested and subjected to a sensory test described below.
The fruit harvested was subjected to a sensory test of sugar content. As a result, it was determined that fruit of the plant applied with GA3 and GSSG or GSH increased in sugar content compared to that of the plant applied with only GA3. Further, it was determined that the plant applied with GSSG and GA3 increased in size of fruit.

[3] = system: Lycopersicum esculentum; assay: Sugar content determination of Lycopersicum esculentum fruit with refractometer (Example 2); conditions: 0.5 mM applied as in Example 1; compared to Cont and Cont2 Sunny conditions; ANOVA 5%
Excerpt: Cultivated were Lycopersicum esculentum plants to which GSSG or GSH was applied by the method described in Example 1. Then, obtained fruit of the plants was subjected to sugar content determination using “Pocket” Refractometer APAL-1 (ATAGO CO., LTD.).
For comparison, Lycopersicum esculentum plants were cultivated under two types of conditions (referred to as “Cont” and “Cont2 Sunny”). In the Cont condition, Lycopersicum esculentum plants were cultivated by the same method as in Example 1, except that GSSG and GSH were not applied. In the Cont2 Sunny condition, a Lycopersicum esculentum plant was not applied with GSSG or GSH and was independently cultivated at a site sufficiently irradiated with sunlight so that illuminance on the Lycopersicum esculentum plant becomes 100%. In the Cont condition and a condition in which GSSG or GSH was applied, the plants were planted at intervals of 40 cm to 50 cm. In this case, a plant may intercept light irradiating another plant. Therefore, illuminance on such plants becomes less than 100%.
In the condition in which GSSG was applied, the condition in which GSH is applied, and the Cont condition, three Lycopersicum esculentum plants were cultivated, respectively. In the Cont2 Sunny condition, one Lycopersicum esculentum plant was cultivated. […]

[4] = system: Fragaria ananassa; assay: Sugar content determination of Fragaria ananassa fruit with refractometer (Example 10); conditions: 50 mL of 0.2 or 0.5 mM GSSG, or 0.4 or 0.5 mM GSH, once a week at root; significance level 5%
Protocol: First, Fragaria ananassa seedlings were transplanted to a planter. In the planter, 6 L of vermiculite (ASAHI INDUSTRIES Co., LTD.), 3 L of KUREHA horticultural soil (KUREHA CORPORATION), and 3 L of vermiculite were layered as a lower, middle, and upper layers, respectively.
During cultivation of Fragaria ananassa plants, 50 mL of 0.2 mM or 0.5 mM GSSG or 50 mL of 0.4 mM or 0.5 mM GSH (adjusted with 0.1N NaOH to be at pH7) was applied once a week at a root per plant. The plants were grown for 63 days without being subjected to bud removal. For comparison, a Fragaria ananassa plant was grown under the same condition, except that GSSG and GSH were not applied. To the plants of any condition, 3 g of Kumiai phosphorate ammonium nitrate potassium S-604 (Chisso Asahi Fertilizer Co., Ltd.) was applied as an additional fertilizer once in 2 weeks.
Further, the fruit obtained was subjected to sugar content determination using “Pocket” Refractometer APAL-1 (ATAGO CO., LTD.). For comparison, fruit not applied with GSSG or GSH was also subjected to the sugar content determination. […] In FIG. 7, the vertical scale indicates sugar content (Brix, unit: %).

[5] = system: Zea mays L. var. saccharata Sturt; assay: Cultivation of Zea mays L. var. saccharata Sturt with GSSG leaf spray, sensory test (Example 11)
Excerpt: In the present example, Zea mays L. var. saccharata Sturt was cultivated. First, a Zea mays L. var. saccharata Sturt seed (TAKII & CO. Ltd., product number: Canberra 86) was sown in vermiculite (ASAHI INDUSTRIES Co., LTD.). Two weeks after sowing, a Zea mays L. var. saccharata Sturt plant was transplanted to a hydroponic culture pot described in Example 1. To the plant, 3 g of Kumiai phosphorate ammonium nitrate potassium S-604 (Chisso Asahi Fertilizer Co., Ltd.) was applied as an additional fertilizer 4 weeks and 6 weeks after the sowing.
In the 5th, 6th, 7th, and 8th week after the sowing, 0.5 mM GSSG (dissolved in 0.1% Tween80 serving as a spreading agent) was sprayed onto a leaf surface. For comparison, a Zea mays L. var. saccharata Sturt plant was cultivated by the same method as in the present example, except that Tween80, but not GSSG, was applied, and fruit thereof was harvested.
Fruit was harvested 86 days after the sowing and subjected to a sensory test of sugar content. As a result, it was determined that fruit of the plant applied with GSSG increased in sugar content compared to that of the plant applied with no GSSG. Further, the fruit obtained was subjected to sugar content determination using “Pocket” Refractometer APAL-1 (ATAGO CO., LTD.). For comparison, the fruit of the plant applied with no GSSG was also subjected to the sugar content determination. […] In FIG. 8, the vertical scale indicates sugar content (Brix, unit: %).
It was also determined that the plant applied with GSSG increased in size and number of fruit. Further, it was determined that the fruit of the plant applied with GSSG was already able to be harvested 70 days after the sowing.

[6] = 0.5 mM in 0.1% Tween80 sprayed onto leaf surface in weeks 5-8

Substance: oxidized glutathione [GSSG]
- sugar content of fruit (Brix) [1]: significantly improved
- size of fruit ([2]; 1 mM agent mixed with 1 mM GA3, applied to anthotaxy): increased
- sugar content of fruit (sensory test) ([2]; 1 mM agent mixed with 1 mM gibberellin (GA3), applied to anthotaxy, compared to plant applied with only GA3): increased
- sugar content ([2]; applied without GA3): increased
- sugar content of fruit (Brix) [3]: significantly increased; also recorded: extremely high sugar content
- sugar content of fruit (Brix), ANOVA versus fruit not applied [4]: significant difference
- number of fruit [5, 6]: increased
- size of fruit [5, 6]: increased
- time at which fruit was already able to be harvested [5, 6]: 70 days after the sowing
- sugar content of fruit (sensory test) ([5]; 0.5 mM in 0.1% Tween80 sprayed onto leaf surface in weeks 5-8 after sowing, harvest 86 days, vs Tween80 only): increased
